{"source": "patent US12083109B2", "about": "“Neurokinin antagonists and uses thereof” (California Institute of Technology, priority 2017, dated 2024)", "key": {"Nk3R [1]": {"biological_target": "T1, Nk3R (Mus musculus, UniProt P47937)", "T1 sequence (P47937 1-452)": "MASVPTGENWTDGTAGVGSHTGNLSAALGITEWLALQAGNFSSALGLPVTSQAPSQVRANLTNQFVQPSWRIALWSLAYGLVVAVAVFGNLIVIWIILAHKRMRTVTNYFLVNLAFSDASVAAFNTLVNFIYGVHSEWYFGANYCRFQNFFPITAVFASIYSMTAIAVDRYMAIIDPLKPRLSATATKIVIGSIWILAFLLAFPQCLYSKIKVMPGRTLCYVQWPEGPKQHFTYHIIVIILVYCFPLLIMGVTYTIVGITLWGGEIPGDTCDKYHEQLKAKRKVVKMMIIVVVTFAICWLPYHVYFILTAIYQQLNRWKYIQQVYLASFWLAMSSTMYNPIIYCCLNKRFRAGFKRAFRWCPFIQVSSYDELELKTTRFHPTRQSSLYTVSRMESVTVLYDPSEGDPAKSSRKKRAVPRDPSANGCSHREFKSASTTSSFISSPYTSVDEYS", "assay": "Shock reactivity (footshock) after tone test, osanetant", "format": "in vivo", "set-up": "from tissue; host or cells: Living mice (wild-type C57Bl6/N males, Charles River)", "procedure": "The protocol for tone trace fear conditioning was performed as previously described (Cushman et al., 2014; incorporated by reference in its entirety) using fear conditioning boxes previously described in detail (Haubensak et al., 2010; Kunwar et al., 2015; incorporated by reference in their entirety). Briefly, mice were transported in squads of four on a white cart to a novel behavioral testing room containing 4 sound-attenuating fear-conditioning chambers (Med Associates). This “training context” was comprised of flat grid flooring (wired to a shock generator and scrambler for footshock delivery, Med Associates), houselights, and the presence of an internal fan for background noise. Chambers were sprayed with 70% Simple Green solution on the underlying chamber pan to generate a unique contextual scent and chambers were cleaned with 70% EtOH between squads. Trace fear conditioning consisted of a 3 minute baseline period followed by 3 tone-shock trials consisting of a 20 second tone conditional stimulus (CS; 75 dB, 2800 Hz), a 20 second trace interval and a 2 second footshock unconditional stimulus (US; 0.7 mA). The inter-trial interval (ITI) between trials was 60 seconds. Mice remained in the chambers an additional 60 seconds before being transported back to the vivarium. The following day, mice were transported in fresh cardboard boxes to a novel behavioral testing room consisting of 4 distinct fear-conditioning boxes to test for tone fear. The “test context” consisted of the houselights and fan turned off, uneven grid flooring, a 1% acetic acid scent and a black plastic insert used to generate a triangular roof. Testing was performed identical to training with the exception that shocks were omitted from test trials to allow for behavior assessment to the tone. A single shock was administered in the last minute of testing to assess activity burst responding to the shock. This allowed assessment of reactivity to the shock under our various manipulations performed during testing without disrupting fear acquisition by performing manipulations during training. All experimental manipulations and data shown herein were performed during the test phase of fear conditioning (training data not shown). Training and testing context were counterbalanced across mice. Freezing behavior during the baseline period as well as during each tone presentation (“during”) and trace interval (“post”) were assessed as previously described (Zelikowsky et al., 2014; incorporated by reference in its entirety) using automated near-infrared video tracking equipment and computer software (VideoFreeze, Med Associates). Shock reactivity (motion, arbitrary units) was measured during the 2 second shock US as well as the 3 seconds immediately following.\nMice were administered the Nk3R antagonist osanetant (Axon Medchem, Axon 1533) either systemically or intra-brain region. Osanctant was dissolved in saline with 0.1% Tween 20 (vehicle). […] For microinfusions, guide cannulas were removed from mice and replaced with injector cannulas (Plastics One), which protruded 0.5 mm from the tip of the guide cannula. Injectors were attached to 5 μl Hamilton syringes with PE tubing (Plastics One) and mounted on a microinfusion pump (Harvard Apparatus) for controlled infusion of osanetant (0.3 μl vehicle with 375 ng dose per site injected over 6 minutes). […]"}, "Nk3R [2]": {"biological_target": "T1, Nk3R", "assay": "Social interaction assay, osanetant", "format": "in vivo", "set-up": "from tissue; host or cells: Living mice (wild-type C57Bl6/N males, Charles River)", "settings": "SIS mice; acute systemic osanetant; listed as Osanetant", "procedure": "Mice were administered the Nk3R antagonist osanetant (Axon Medchem, Axon 1533) either systemically or intra-brain region. Osanctant was dissolved in saline with 0.1% Tween 20 (vehicle). For systemic administration mice received an intraperitoneal (i.p.) injection (5 mg/kg) 20 minutes prior to behavioral testing. For microinfusions, guide cannulas were removed from mice and replaced with injector cannulas (Plastics One), which protruded 0.5 mm from the tip of the guide cannula. Injectors were attached to 5 μl Hamilton syringes with PE tubing (Plastics One) and mounted on a microinfusion pump (Harvard Apparatus) for controlled infusion of osanetant (0.3 μl vehicle with 375 ng dose per site injected over 6 minutes). For experiments using systemic administration of clozapine-N-oxide (CNO), CNO (Enzo Life Sciences-Biomol, BML-NS105-0005) was dissolved in saline (9 g/L NaCl) and injected (i.p.) at 5 mg/kg for hM4DREADD silencing or 2 mg/kg for hM3DREADD activation 20 minutes prior to behavioral testing. CNO was also administered chronically in drinking water (0.5 mg CNO/100 ml water)."}}, "note": "Entries after “also recorded” stand apart in the source; their conditions may differ.", "data": [{"smiles": "CC(=O)N(C)C1(c2ccccc2)CCN(CCC[C@]2(c3ccc(Cl)c(Cl)c3)CCCN(C(=O)c3ccccc3)C2)CC1", "note": "[osanetant, N-(1-{3-[(3R)-1-benzoyl-3-(3,4-dichlorophenyl)piperidin-3-yl]propyl}-4-phenylpiperidin-4-yl)-N-methylacetamide]", "values": [{"measurement": "SIS-induced increased shock reactivity", "setting": "Nk3R [1]; SIS mice, osanetant 5 mg/kg i.p. 20 min before test", "result": "blocked"}, {"measurement": "SIS-induced increase in shock reactivity", "setting": "Nk3R [1]; osanetant daily during two-week isolation, tested off-drug", "result": "a trend to protection; also recorded: reduced, but not significantly"}, {"measurement": "reactivity to footshock (SIS-enhanced)", "setting": "Nk3R [1]; osanetant injection into CeA", "result": "reduced; also recorded: blocked"}, {"measurement": "responses to the footshock", "setting": "Nk3R [1]; osanetant microinfusion into DMH", "result": "had no effect"}, {"measurement": "shock reactivity", "setting": "Nk3R [1]; osanetant microinfusion into dBNSTa", "result": "no effect"}, {"measurement": "SIS-induced decreased social interaction (time in social zone)", "setting": "Nk3R [2]", "result": "blocked; also recorded: attenuated"}]}]}
